# Laboratory results as given in patent US9139596B2, “Cyclic prodrugs of duocarmycin analogs” (The Scripps Research Institute, priority 2012, dated 2015).
# Where two headings read alike, the source gives them in different places.
# Columns and labels:
# w794 DNA = assay: DNA alkylation in cell-free systems; format: biochemical
# Text: Lane 1, control DNA; lanes 2-5, Sanger G, C, A, and T sequencing reactions; lanes 6-8, (+)-1 (1×10^−4 to 1×10^−6); lanes 9-10, (−)−1 (1×10^−3 to 1×10^−4); lanes 11-12, (+)-6 (1×10^−1 to 1×10^−2).
# [1] = tested on: L1210 murine leukemia cell line; assay: In vitro cytotoxic activity (cell growth inhibition), L1210; format: cell-based; conditions: for IC50: Mus musculus
# Description: In Vitro Cytotoxic Activity. Both (+)- and ent-(−)-6 and their N-Boc precursors 16 were tested for cell growth inhibition in a cytotoxic assay with the L1210 murine leukemia cell line.
# [2] = tested on: L1210 murine leukemia cells implanted ip; assay: In vivo antitumor activity (L1210, ip); conditions: for Surviving Mice: live animals after 250 days
# Description: Therefore, the in vivo antitumor activity of (+)-6 was assessed alongside seco-CBI-indole2 (4) in an antitumor model consisting of L1210 murine leukemia cells implanted ip into […] which has been used historically as an initial antitumor model for comparisons in this class.^11,12,14,15 A dose range of 300 to 9000 μg/kg for prodrug (+)-6 (scaled to its in vitro cytotoxic activity IC50) and 60 to 500 μg/kg for seco-CBI-indole2 (4) and a dosing schedule (administered three times ip on days 1, 5, and 9) for both compounds was employed.
# B6D2F1 mice were injected intraperitoneal (i.p.) with syngeneic L1210 cells (1×10^6) on day 0. Ten mice were randomly assigned to control vehicle or treatment groups for compounds (+)-4 and (+)-6 at doses of 60, 100, 250, and 500 μg/kg/inj for (+)-4 or 300, 1000, 3000, and 9000 μg/kg/inj for (+)-6. Compounds (+)-4 and (+)-6 were formulated in 100% DMSO, and injected i.p. on study days 1, 5, and 9. Following injection of tumor cells, animals were monitored daily and weighed two times per week. Percent survival (T/C) for treated and control groups were determined by dividing the total survival days for each treatment group by the total survival days for the control group and multiplying ×100. All animal studies were carried out in the animal facilities of The University of Kansas Medical Center with strict adherence to the guidelines of the IACUC Animal Welfare Committee of KUMC (IACUC approval #2009-1837).
# [3] = Stability in mouse plasma (Table 4)
# [4] = Stability in human plasma
# Description: Reagents and solvents were purchased reagent-grade and used without further purification. Pooled human plasma, with sodium citrate as an anticoagulant, was purchased from Innovative Research and stored at −20° C. […] All reactions were performed in oven-dried glassware under an Ar atmosphere. Evaporation and concentration in vacuo was performed at 20° C. […] Chiral phase HPLC was performed using a Shimadzu HPLC on a semi-preparative Diacel ChiralCel OD column (0.46 cm×25 cm) with a flow rate of 7 mL/min and with UV detection at λ=254 nm. Optical rotations were determined on a Rudolf Research Analytical Autopol III Automatic Polarimeter (λ=589 nm, 25° C.).
# [5] = Stability in pH 7.0 phosphate buffer; conditions: for half-life: buffer
# [6] = 300 μg/kg i.p. on days 1, 5, and 9
# [7] = 1000 μg/kg i.p. on days 1, 5, and 9
# [8] = 3000 μg/kg i.p. on days 1, 5, and 9
# [9] = 9000 μg/kg i.p. on days 1, 5, and 9
structure (smiles),measurement,setting,value
"O=C1Nc2cccc3c4c(cc(c23)O1)N(C(=O)c1cc2cc(NC(=O)c3cc5ccccc5[nH]3)ccc2[nH]1)C[C@H]4CCl [Compound 6, N-(2-(10-(Chloromethyl)-5-oxo-5,8,9,10-tetrahydro-4H-pyrrolo[3′,2′:5,6]naphtho[1,8-de][1,3]oxazine-8-carbonyl)-1H-indol-5-yl)-1H-indole-2-carboxamide]",DNA alkylation,w794 DNA,incapable of alkylating DNA
same,fold less potent than the parent drug 20,[1]; L1210,30-70 fold
same,fold more potent than its unnatural enantiomer,[1]; L1210,6 fold
same,potency of natural (S)- versus unnatural (R)-enantiomer,[1]; L1210,about one order of magnitude more potent
same,times more potent than its N-Boc precursor 16,[1]; L1210,100 to 1000 times
same,fold less potent than the free drug seco-CBI-indole2 4,"[1]; L1210, natural enantiomer",approximately 200 fold
same,IC50,"[1]; L1210, natural (S)-enantiomer, Table 4, read-out: In vitro IC50 L1210 natural",6.6 nM
same,IC50,"[1]; L1210, natural enantiomer, Table 2, read-out: IC50 L1210 natural",6.6 nM
same,IC50,"[1]; L1210, unnatural (R)-enantiomer, Table 4, read-out: In vitro IC50 L1210 unnatural",40 nM
same,IC50,"[1]; L1210, unnatural enantiomer, Table 2, read-out: IC50 L1210 unnatural",40 nM
same,IC50,"[1]; L1210, stated range, read-out: in vitro cellular potency (IC50)",1 to 10 nM
same,MSP (Mean Survival Period),[2]; [6],24.7 days
same,T/C (Treated/Control MSP x 100),[2]; [6],140
same,Surviving Mice,[2]; [6],0/10
same,MSP (Mean Survival Period),[2]; [7],>48.5 days
same,T/C (Treated/Control MSP x 100),[2]; [7],>275
same,Surviving Mice,[2]; [7],1/10
same,MSP (Mean Survival Period),[2]; [8],>55.3 days
same,T/C (Treated/Control MSP x 100),[2]; [8],>310
same,Surviving Mice,[2]; [8],1/10
same,MSP (Mean Survival Period),[2]; [9],>172.6 days
same,T/C (Treated/Control MSP x 100),[2]; [9],>980
same,T/C (Treated/Control MSP x 100),"[2]; 9000 μg/kg i.p. on days 1, 5, and 9, listed as (+)-6",> 980
same,Surviving Mice,[2]; [9],5/10
same,antitumor activity over the dose range examined,"[2]; 300 to 9000 μg/kg (30-fold range) i.p. on days 1, 5, and 9",productive antitumor activity over the entire and much larger dose range examined
same,tolerance at the injection sites,"[2]; ip administration, compared with the free drug",tolerated at the injection sites of the animals much better than the free drug
same,half-life,[3],12 h
same,free drug release,"[4]; human plasma, 48 h",5%
same,half-life,"[4]; human, plasma",> 48 h
same,half-life,"[5]; pH 7, Stability t1/2, pH 7.0 phosphate buffer, Table 4",> 168 h
same,half-life,"[5]; pH 7, t1/2, pH 7.0 phosphate buffer",> 672 h
same,cleavage of the prodrug,[5]; pH 7.0 phosphate buffer,no cleavage observed
